Tested on: luciferase gene expression in HEK 293 cells in response to Comp. 004
Assay: Screen of riboswitch constructs with 12C6-1 variant aptamers (libraries N1-N5) against Comp. 004, luciferase in HEK 293 cells
Assay type: cell-based, human
Conditions: library N5 variant aptamers (L5, X16-X21 randomized) of 12C6-1 in riboswitch constructs; in response to Comp. 004 treatment; HEK 293 cells
Description: Cloning of riboswitch constructs containing 12C6-1 variant aptamer sequences: 12C6-1 aptamer sequence was used as template, and nucleobases were randomized at certain position in the sequence. Aptamers incorporating random mutagenesis were synthesized by Integrated DNA Technologies, Inc. Golden Gate cloning strategy (New England Biolabs, NEB) was used to clone the synthesized aptamer sequences into intron-exon-intron cassette to replace the 12C6-1 aptamer in the Luci-12C6-1 riboswitch construct, generating riboswitch constructs containing variant aptamer sequences.
To further improve the riboswitch activity in responding to Comp. 004 and related compounds, the aptamer sequence 12C6-1 was subject to mutagenesis to generate aptamer variants, and the riboswitches containing the variant aptamers were screened against Comp. 004 for the ones that have improved dynamic range of induced gene expression (the fold induction), in comparison with the fold induction by parental riboswitch construct Luci-12C6-1. […] These loop or junction region alone or together with stem region in proximity were chosen for random mutagenesis to generate riboswitches with re-engineered aptamer sequences with improved activity.
Five aptamer libraries N1, N2, N3, N4 and N5 were generated by randomizing nucleotides at positions in J2-4, J2-3/J3-3a/J3a-2/P3, L3a, J4-5/J5-4/P4 and L5 regions of the parent 12C6-1 sequence, respectively (see FIGS. 3a and 3b). Single bacterial colonies were picked and plasmids containing variant riboswitch constructs were screened in HEK 293 cells for improved gene regulation activity in response to 25 µM Comp. 004 as compared to parent riboswitch construct Luci-12C6-1.

| Substance | Fold (induction of luciferase gene expression) [fold] |
| --- | --- |
| N5_1A8 (CTGGGGAGTCCT; chemistry not given here) | 589.4 |
| N5_1A9 (CTGGGGAGTCCT; chemistry not given here) | 804.7 |
| N5_1A10 (CTGGGGAGTCCT; chemistry not given here) | 674.4 |
| N5_1A11 (CTGGGGAGTCCT; chemistry not given here) | 793.5 |
| N5_1B2 (CTGGGGAGTCCT; chemistry not given here) | 747.7 |
| N5_1B3 (CTGGGGAGTCCT; chemistry not given here) | 792.0 |
| N5_1B5 (CTGGGGAGTCCT; chemistry not given here) | 780.8 |
| N5_1B6 (CTGGGGAGTCCT; chemistry not given here) | 1381.8 |
| N5_1B7 (CTGGGGAGTCCT; chemistry not given here) | 662.1 |
| N5_1B8 (CTGGGGAGTCCT; chemistry not given here) | 645.1 |
| N5_1B9 (CTGGGGAGTCCT; chemistry not given here) | 941.5 |
| N5_1B10 (CTGGGGAGTCCT; chemistry not given here) | 1013.6 |
| N5_1B11 (CTGGGGAGTCCT; chemistry not given here) | 477.1 |
| N5_1C2 (CTGGGGAGTCCT; chemistry not given here) | 687.2 |
| N5_1C3 (CTGGGGAGTCCT; chemistry not given here) | 664.1 |
| N5_1C4 (CTGGGGAGTCCT; chemistry not given here) | 665.0 |
| N5_1C5 (CTGGGGAGTCCT; chemistry not given here) | 966.1 |
| N5_1C7 (CTGGGGAGTCCT; chemistry not given here) | 485.7 |
| N5_1C9 (CTGGGGAGTCCT; chemistry not given here) | 915.3 |
| N5_1C10 (CTGGGGAGTCCT; chemistry not given here) | 693.8 |
| N5_1C11 (CTGGGGAGTCCT; chemistry not given here) | 484.2 |
| N5_1D1 (CTGGGGAGTCCT; chemistry not given here) | 321.6 |
| N5_1D2 (CTGGGGAGTCCT; chemistry not given here) | 561.3 |
| N5_1D3 (CTGGGGAGTCCT; chemistry not given here) | 697.1 |
| N5_1D4 (CTGGGGAGTCCT; chemistry not given here) | 522.9 |

| Substance | Fold (induction of luciferase gene expression) [fold] |
| --- | --- |
| N5_1D5 (CTGGGGAGTCCT; chemistry not given here) | 841.7 |
| N5_1D6 (CTGGGGAGTCCT; chemistry not given here) | 684.9 |
| N5_1D8 (CTGGGGAGTCCT; chemistry not given here) | 383.5 |
| N5_1D10 (CTGGGGAGTCCT; chemistry not given here) | 762.7 |
| N5_1D11 (CTGGGGAGTCCT; chemistry not given here) | 4.8 |
| N5_1D12 (CTGGGGAGTCCT; chemistry not given here) | 3.6 |
| N5_1E1 (CTGGGGAGTCCT; chemistry not given here) | 566.4 |
| N5_1E2 (CTGGGGAGTCCT; chemistry not given here) | 728.6 |
| N5_1E4 (CTGGGGAGTCCT; chemistry not given here) | 834.9 |
| N5_1E5 (CTGGGGAGTCCT; chemistry not given here) | 681.3 |
| N5_1E6 (CTGGGGAGTCCT; chemistry not given here) | 365.1 |
| N5_1E8 (CTGGGGAGTCCT; chemistry not given here) | 691.8 |
| N5_1E9 (CTGGGGAGTCCT; chemistry not given here) | 699.7 |
| N5_1E10 (CTGGGGAGTCCT; chemistry not given here) | 1026.1 |
| N5_1E11 (CTGGGGAGTCCT; chemistry not given here) | 1095.6 |
| N5_1E12 (CTGGGGAGTCCT; chemistry not given here) | 1588.2 |
| N5_1F1 (CTGGGGAGTCCT; chemistry not given here) | 557.2 |
| N5_1F2 (CTGGGGAGTCCT; chemistry not given here) | 415.1 |
| N5_1F3 (CTGGGGAGTCCT; chemistry not given here) | 212.8 |
| N5_1F4 (CTGGGGAGTCCT; chemistry not given here) | 958.5 |
| N5_1F6 (CTGGGGAGTCCT; chemistry not given here) | 247.6 |
| N5_1F9 (CTGGGGAGTCCT; chemistry not given here) | 685.1 |
| N5_1F10 (CTGGGGAGTCCT; chemistry not given here) | 1071.3 |
| N5_1F12 (CTGGGGAGTCCT; chemistry not given here) | 1057.8 |
| N5_1G2 (CTGGGGAGTCCT; chemistry not given here) | 517.7 |

| Substance | Fold (induction of luciferase gene expression) [fold] |
| --- | --- |
| N5_1G4 (CTGGGGAGTCCT; chemistry not given here) | 86.0 |
| N5_1G5 (CTGGGGAGTCCT; chemistry not given here) | 804.6 |
| N5_1G6 (CTGGGGAGTCCT; chemistry not given here) | 1311.6 |
| N5_1G8 (CTGGGGAGTCCT; chemistry not given here) | 888.7 |
| N5_1G9 (CTGGGGAGTCCT; chemistry not given here) | 1230.3 |
| N5_1G10 (CTGGGGAGTCCT; chemistry not given here) | 1000.2 |
| N5_1G11 (CTGGGGAGTCCT; chemistry not given here) | 789.0 |
| N5_1H1 (CTGGGGAGTCCT; chemistry not given here) | 84.1 |
| N5_1H2 (CTGGGGAGTCCT; chemistry not given here) | 386.6 |
| N5_1H3 (CTGGGGAGTCCT; chemistry not given here) | 764.7 |
| N5_1H4 (CTGGGGAGTCCT; chemistry not given here) | 482.5 |
| N5_1H6 (CTGGGGAGTCCT; chemistry not given here) | 654.9 |
| N5_1H7 (CTGGGGAGTCCT; chemistry not given here) | 1032.1 |
| N5_1H8 (CTGGGGAGTCCT; chemistry not given here) | 622.6 |
| N5_1H9 (CTGGGGAGTCCT; chemistry not given here) | 714.2 |
| N5_1H10 (CTGGGGAGTCCT; chemistry not given here) | 781.1 |
| N5_1H11 (CTGGGGAGTCCT; chemistry not given here) | 413.6 |
| N5_2B5 (CTGGGGAGTCCT; chemistry not given here) | 1107.3 |
| N5_2B11 (CTGGGGAGTCCT; chemistry not given here) | 1009.4 |
| N5_2C2 (CTGGGGAGTCCT; chemistry not given here) | 894.7 |
| N5_2C5 (CTGGGGAGTCCT; chemistry not given here) | 1055.1 |
| N5_2D8 (CTGGGGAGTCCT; chemistry not given here) | 1047.3 |
| N5_2D9 (CTGGGGAGTCCT; chemistry not given here) | 735.9 |
| N5_2D10 (CTGGGGAGTCCT; chemistry not given here) | 884.5 |
| N5_2E6 (CTGGGGAGTCCT; chemistry not given here) | 685.6 |

From patent US20250101436A1, “APTAMERS AND SMALL MOLECULE LIGANDS” (MeiraGTx UK II Limited, priority 2021, published 2025)
